For one data set, the system named is MDA-MB-231 cells. The experiment in a line: Clonogenic survival and post-irradiation survival (SF2) of transfected MDA-MB-231 cells. To be noted: MDA-MB-231, 100 nM, unirradiated. In kind it is cell-based, human. As to the method:
FIG. 7 A) MDA-MB-231 cells transfected with 100 nM RNA duplexes were serum-starved overnight and treated with 50 nM IGF-I for 30 min. […] Results represent mean±sem of colony counts in triplicate dishes. Similar results were obtained in two further clonogenic assays. • C) Clonogenic survival of transfected MDA-MB-231 cells that were unirradiated or irradiated at 2Gy. The fraction surviving 2Gy irradiation (SF2) is shown as mean±sem of three independent assays.
The effect of transfection with 100 nM ASO4 or siRNA duplexes R4 and R5, equivalent to strongly and weakly hybridizing ASOs respectively, on colony forming efficiency and post-irradiation survival was also evaluated. […] This in turn illustrates the utility of hybridisation to the scanning ASO array in the selection of siRNA reagents, since relative hybridisation to the array is found to be predictive of activity in RNA interference and biological efficacy.

The test system of data set [1] is UC101 human ovarian cancer cells. The experiment in a line: Tumorigenicity of UC101 ovarian cancer cells transfected with siRNA (xenografts). Type of data set: in vivo, female athymic (nu/nu mice). The settings on record: UC101 cells transfected with 200 nM siRNA, nu/nu mice. On the procedure: UC101 ovarian cancer cells were transfected with 200 nM siRNA, mixed with irradiated NIH-3T3 cells and inoculated into the flanks of female athymic (nu/nu mice).
Tumorigenicity testing was conducted using UC101 human ovarian cancer cells transfected with 200 nM siRNA. After 48 hr the cells were inoculated into the flanks of female athymic (nu/nu mice), using 5×10^6 tumour cells mixed with 5×10^6 irradiated NIH-3T3 cells per mouse. Tumours were measured and volumes calculated as described (Macaulay et al., Oncogene 20: 2029-40, 2001). All procedures were performed in accordance with the Home Office Scientific Procedures Act 1986, and with the approval of the Animal Ethics Committee of Cancer Research UK.

Another data set has as its system IGF1R. Put plainly: IGF1R levels by immunoblotting in human tumour cell lines transfected with RNAi duplexes. Type of data set: cell-based. To be noted: human ovarian (UC101) and prostate (DU145) cancer cells, 10 nM. On the procedure: The human and murine cell lines used in this study were cultured in RPMI 1640 plus 10% FCS at 37° C. in a humidified atmosphere of 5% CO2. The cultures were negative when tested for Mycoplasma infection. Cultures were passaged the day before transfection to achieve 30-50% confluence the following day. Initial transfections of ASOs used 1-2.5 μg/ml Cytofectin (Glen Research, Sterling, Va.), according to the manufacturer's instructions. Latterly Oligofectamine (Life Sciences) has been used for all ASO and RNAi transfections. The method was as described (see manufacturer's instructions and www.dharmacon.com) with minor modifications. For transfection of monolayers seeded in 6 well plates, 5 μl phosphorothioate oligonucleotide or RNA duplex at 100× final concentration were mixed with 2501 serum-free Optimem (Gibco-BRL). In a separate tube 2 μl Oligofectamine was mixed with 68 μl Optimem. After 10 min incubation at room temperature the contents of the two tubes were mixed and incubated for a further 25 min at room temperature. Monolayers were washed with 1-2 ml Optimem. To the cells were added 175 μl Optimem followed by the 325 μl complexes. Volumes were scaled up by factors of 2.22 or 6.05 for transfection in 60 mm or 100 mm dishes respectively. Cultures were incubated at 37° C. for 4 hr, and then 50 μl FCS and 3.5 ml RPMI plus 5% FCS were added to each well. After 48 hr incubation effects on IGF1R and IR expression were determined by immunoblotting. Some transfected cultures were serum-starved overnight, divided into two aliquots and treated with 10 nM Long R3-IGF-I (GroPep, Adelaide) or diluent for 30 min at 37° C. prior to lysis.
IGF1R expression was assessed by immunoblotting as previously described (Macaulay et al 2001). After washing in ice-cold PBS, cells were lysed in 50 mM Hepes pH 7.5, 100 mM NaCl, 10 mM EDTA, 1% Triton-X-100, 4 mM sodium pyrophosphate, 2 mM sodium orthovanadate, 10 mM sodium fluoride, 1 mM PMSF, 2 μg/ml each leupeptin and aprotinin. Lysates were centrifuged for 15 minutes at 14,000 g, the protein concentration of supernatants was measured using BCA assay reagent (Pierce), and equivalent amounts of protein were separated on 7.5% SDS-PAGE gels and transferred to nitrocellulose. Target protein levels were assessed using antibodies to the β-subunit of the IGF1R or IR (Santa Cruz), phospho-Ser 473 Akt or total Akt (Cell Signalling, New England Biolabs) or β-tubulin (Sigma). Activated IGF1R was detected by immunoprecipitation for phosphotyrosine (P-Tyr-100, Cell Signaling Technology). Primary antibodies were detected with HRP-conjugated secondary antibodies (Dako), and ECL Plus (Amersham Pharmacia). […]
Tumour cells were transfected with 10 nM duplexes and IGF1R levels were measured after 48 hr. After correction for loading differences IGF1R levels in cells transfected with RNAi were expressed as % of levels in cells transfected with equivalent inverted control duplex.

“R5: RNAi duplex UGAGUACAACUACCGCUGCTT / TTACUCAUGUUGAUGGCGACG, SEQ ID NO:32 (UGAGUACAACUACCGCUGCNN; second strand not cited, chemistry not fully specified)”: the “Clonogenic survival” value with MDA-MB-231 cells is on record as “inhibited survival”. The “Tumour development” value in data set [1] is “rapidly growing tumours”. In the data set with IGF1R, the “IGF1R downregulation, R4 compared with R5” value is recorded as “induced IGF1R downregulation”.

Source of the values: patent US20050255493A1, “Molecular targeting of the IGF-1 receptor” (priority 2002, published 2005).
